Test results as given in ChEMBL document CHEMBL1201862, “PubChem BioAssay data set” (2004).
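How tested: cells in 96-well plates exposed to compound for 48 hours at five concentrations. GI50 is the concentration that inhibits growth by half.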 Calls of active or inactive are those of the source. Cut-off read from the data, not from the text of the source: active = GI50 up to about 1.1 µM and inactive = higher.

What was measured:
Assay in all cases: NCI anticancer screen, dose series, 48 h
MDA-N = tested on: MDA-N
NCI-H23 = tested on: NCI-H23
OVCAR-8 = tested on: OVCAR-8
SN12C = tested on: SN12C
HCC 2998 = tested on: HCC 2998
CCRF-CEM = tested on: CCRF-CEM
SNB-19 = tested on: SNB-19
ACHN = tested on: ACHN
SF-539 = tested on: SF-539
M14 = tested on: M14
NCI/ADR-RES = tested on: NCI/ADR-RES
SR = tested on: SR
A498 = tested on: A498
HCT-116 = tested on: HCT-116
SNB-75 = tested on: SNB-75
EKVX = tested on: EKVX
MCF7 = tested on: MCF7
DU-145 = tested on: DU-145
MDA-MB-231 = tested on: MDA-MB-231
TK-10 = tested on: TK-10

Measured: GI50

CCCCS(=O)(=O)CCC(N)C(=O)O (configuration not stated)
inactive: MDA-N > 100 µM | NCI-H23 > 100 µM | OVCAR-8 > 100 µM | SN12C > 100 µM | HCC 2998 > 100 µM | CCRF-CEM > 100 µM | SNB-19 > 100 µM | ACHN > 100 µM | SF-539 > 100 µM | M14 > 100 µM | NCI/ADR-RES > 100 µM | SR > 100 µM | A498 > 100 µM | HCT-116 > 100 µM | SNB-75 > 100 µM | EKVX > 100 µM | MCF7 > 100 µM | DU-145 > 100 µM | MDA-MB-231 > 100 µM | TK-10 > 100 µM

Cc1ccc2c(ccc3c[n+]4ccccc4c(C)c32)c1.[O-][Cl+3]([O-])([O-])[O-]
active: SN12C 0.402 µM | SNB-19 0.451 µM
inactive: MDA-N > 100 µM | NCI-H23 1.32 µM | OVCAR-8 2.29 µM | HCC 2998 2.77 µM | CCRF-CEM 6.64 µM | ACHN 6.7 µM | SF-539 2.3 µM | M14 5.46 µM | NCI/ADR-RES > 100 µM | SR 1.21 µM | A498 13.4 µM | HCT-116 4.59 µM | EKVX 62.4 µM | MCF7 2.89 µM | DU-145 1.13 µM | MDA-MB-231 6.61 µM | TK-10 23.4 µM

COc1ccc(-n2c(C)nc3ccc(/N=C/c4ccccc4)cc3c2=O)cc1
inactive: MDA-N > 100 µM | NCI-H23 > 100 µM | OVCAR-8 > 100 µM | SN12C > 100 µM | HCC 2998 > 100 µM | SNB-19 > 100 µM | ACHN > 100 µM | NCI/ADR-RES > 100 µM | SR > 100 µM | A498 > 100 µM | HCT-116 > 100 µM | SNB-75 > 100 µM | EKVX > 100 µM | MCF7 > 100 µM | DU-145 > 100 µM | MDA-MB-231 > 100 µM | TK-10 > 100 µM

S=C(NN=C1NCCCCN1)Nc1ccccc1
inactive: MDA-N 98.4 µM | NCI-H23 > 100 µM | OVCAR-8 36 µM | SN12C > 100 µM | HCC 2998 > 100 µM | CCRF-CEM 19.8 µM | SNB-19 > 100 µM | ACHN 28.9 µM | SF-539 > 100 µM | M14 31.7 µM | NCI/ADR-RES > 100 µM | SR 13.1 µM | A498 > 100 µM | HCT-116 24.5 µM | SNB-75 80.9 µM | EKVX 66.4 µM | MCF7 31.2 µM | DU-145 > 100 µM | MDA-MB-231 > 100 µM

Nc1nc(Cl)cc(NC23CC4CC(CC(C4)C2)C3)n1
inactive: MDA-N > 100 µM | NCI-H23 34 µM | OVCAR-8 90.6 µM | SN12C > 100 µM | HCC 2998 > 100 µM | CCRF-CEM > 100 µM | SNB-19 > 100 µM | ACHN > 100 µM | SF-539 47.9 µM | M14 > 100 µM | NCI/ADR-RES 42.9 µM | SR > 100 µM | A498 > 100 µM | HCT-116 78.2 µM | SNB-75 26.2 µM | EKVX > 100 µM | MCF7 85.9 µM | DU-145 > 100 µM | MDA-MB-231 94.6 µM

CC1CNC(c2ccc3c(c2)Cc2cc(C4=NC(C)CN4)ccc2-3)=N1 (configuration not stated)
inactive: MDA-N 34.8 µM | NCI-H23 37.2 µM | OVCAR-8 37.2 µM | SN12C 48.1 µM | HCC 2998 18.2 µM | CCRF-CEM > 100 µM | SNB-19 36.6 µM | ACHN > 100 µM | M14 40.2 µM | NCI/ADR-RES > 100 µM | SR 42.9 µM | A498 > 100 µM | HCT-116 31.3 µM | SNB-75 54.2 µM | EKVX > 100 µM | MCF7 17.7 µM | DU-145 65.8 µM | MDA-MB-231 33.6 µM | TK-10 > 100 µM

NC(=O)CSc1nc2ccccc2c(=O)n1N
inactive: MDA-N > 100 µM | NCI-H23 > 100 µM | OVCAR-8 > 100 µM | SN12C > 100 µM | HCC 2998 > 100 µM | SNB-19 > 100 µM | ACHN > 100 µM | SF-539 > 100 µM | M14 > 100 µM | NCI/ADR-RES > 100 µM | SR > 100 µM | A498 > 100 µM | HCT-116 > 100 µM | SNB-75 > 100 µM | EKVX > 100 µM | MCF7 > 100 µM | DU-145 > 100 µM | MDA-MB-231 > 100 µM | TK-10 > 100 µM

COc1ccc(N2C(=O)/C(=C\c3cc(OC)c(OC)c(OC)c3)SC2c2ccccc2)cc1 (configuration not stated)
inactive: MDA-N 25.4 µM | NCI-H23 33.1 µM | OVCAR-8 95.9 µM | SN12C > 100 µM | HCC 2998 > 100 µM | CCRF-CEM 21.2 µM | SNB-19 > 100 µM | ACHN 62.4 µM | SF-539 > 100 µM | M14 55.7 µM | NCI/ADR-RES 34.8 µM | SR 28.4 µM | A498 > 100 µM | HCT-116 71.9 µM | EKVX 83.9 µM | MCF7 44.2 µM | DU-145 > 100 µM | MDA-MB-231 > 100 µM | TK-10 > 100 µM

CC1=CN(c2ccccc2)S2=C1c1sc3c(c1N2c1ccc(Br)cc1)CCCC3 (configuration not stated)
inactive: MDA-N > 100 µM | NCI-H23 > 100 µM | OVCAR-8 > 100 µM | SN12C > 100 µM | HCC 2998 > 100 µM | CCRF-CEM > 100 µM | SNB-19 > 100 µM | ACHN > 100 µM | SF-539 > 100 µM | M14 > 100 µM | NCI/ADR-RES > 100 µM | SR > 100 µM | A498 > 100 µM | HCT-116 > 100 µM | EKVX > 100 µM | MCF7 > 100 µM | DU-145 > 100 µM | MDA-MB-231 > 100 µM | TK-10 > 100 µM

CCOC(=O)C(C(=O)OCC)C(=S)NC1OC(COC(C)=O)C(OC(C)=O)C(OC(C)=O)C1OC(C)=O (configuration not stated)
inactive: MDA-N > 100 µM | NCI-H23 > 100 µM | OVCAR-8 > 100 µM | SN12C > 100 µM | HCC 2998 > 100 µM | CCRF-CEM > 100 µM | SNB-19 > 100 µM | SF-539 > 100 µM | M14 > 100 µM | NCI/ADR-RES > 100 µM | SR > 100 µM | A498 > 100 µM | HCT-116 > 100 µM | EKVX > 100 µM | MCF7 > 100 µM | DU-145 > 100 µM | MDA-MB-231 > 100 µM

COC(=O)C1=C(O)C(C(=O)OC)[C@]2(O)[C@H](C(=O)OC)[C@H]1C[C@@H](c1ccc(C(F)(F)F)cc1)[C@H]2C(=O)OC (some centres not stated)
inactive: MDA-N 3.27 µM | NCI-H23 3.58 µM | OVCAR-8 2.85 µM | SN12C 4.47 µM | HCC 2998 3.47 µM | SNB-19 3.87 µM | ACHN 3.46 µM | SF-539 1.59 µM | M14 3.81 µM | NCI/ADR-RES 2.33 µM | SR 2.56 µM | A498 3.37 µM | HCT-116 2.54 µM | SNB-75 4.13 µM | EKVX 10.6 µM | MCF7 3.5 µM | DU-145 4.24 µM | MDA-MB-231 4.22 µM | TK-10 4.73 µM

O=C(NNC(=S)NC1CCCCC1)C12CC3CC(CC(C3)C1)C2
active: SR 0.637 µM
inactive: MDA-N > 100 µM | NCI-H23 > 100 µM | OVCAR-8 > 100 µM | SN12C > 100 µM | HCC 2998 > 100 µM | CCRF-CEM > 100 µM | SNB-19 > 100 µM | ACHN > 100 µM | SF-539 > 100 µM | M14 > 100 µM | NCI/ADR-RES > 100 µM | A498 > 100 µM | HCT-116 > 100 µM | SNB-75 52.2 µM | MCF7 > 100 µM | DU-145 > 100 µM | MDA-MB-231 > 100 µM | TK-10 > 100 µM

C=C1N(S(=O)(=O)c2ccc(C)cc2)C(=O)OCC12CCCC2
inactive: MDA-N > 100 µM | NCI-H23 59.3 µM | OVCAR-8 > 100 µM | HCC 2998 > 100 µM | CCRF-CEM 65.5 µM | SNB-19 > 100 µM | ACHN > 100 µM | SF-539 > 100 µM | M14 > 100 µM | NCI/ADR-RES 81.7 µM | SR 45.7 µM | A498 > 100 µM | HCT-116 55.3 µM | SNB-75 14.1 µM | EKVX 55 µM | MCF7 > 100 µM | DU-145 > 100 µM | MDA-MB-231 > 100 µM | TK-10 > 100 µM

CCOC(=O)c1sc2nc(SC)nc3c2c1NCN3c1ccc2c(c1)OCO2
inactive: MDA-N 44.3 µM | NCI-H23 41.9 µM | OVCAR-8 5.41 µM | SN12C 39.4 µM | HCC 2998 44.7 µM | CCRF-CEM 14.6 µM | SNB-19 11.4 µM | ACHN 5.94 µM | SF-539 21.6 µM | M14 15.5 µM | NCI/ADR-RES 8.77 µM | SR 39.3 µM | A498 33.3 µM | HCT-116 27.5 µM | EKVX 42.2 µM | MCF7 16.7 µM | DU-145 12.1 µM | MDA-MB-231 13.4 µM | TK-10 17.2 µM

CCOC(=O)c1ccc(NC(=O)O/N=C(/Cl)CC)cc1
inactive: MDA-N 16.8 µM | NCI-H23 17.4 µM | OVCAR-8 14.9 µM | SN12C 19.9 µM | HCC 2998 18.1 µM | CCRF-CEM 1.82 µM | SNB-19 21.3 µM | ACHN 9.18 µM | SF-539 17.6 µM | M14 2.14 µM | NCI/ADR-RES 14 µM | SR 3.57 µM | A498 15.7 µM | HCT-116 8.99 µM | SNB-75 13.6 µM | EKVX 16.1 µM | MCF7 15 µM | DU-145 17.4 µM | MDA-MB-231 19.6 µM
